IC50 data for 42 compounds are collected here from patent US20260103465A1, “GLYCOGEN SYNTHASE KINASE 3 INHIBITORS AND USES THEREOF” (The Broad Institute, Inc., priority 2023, published 2026).

Test [1] deals with T1, GSK3a (GST-full length GSK3a) (Homo sapiens, UniProt P49840).
T1 construct: GST-full length GSK3a [SignalChem G08-10G]; purchased SignalChem G08-10G
As to the kind of experiment: GSK3a TR-FRET kinase inhibition assay. Format: biochemical. The note with it: 1 mM ATP; Table 5; read-out: GSK3α TR-FRET 1 mM ATP Average IC50. The protocol: (§1) TR-FRET assay was performed in a white, 384 well, low volume, flat bottom plate (Grenier). After a 30 minute preincubation in assay buffer with the indicated concentration of compound, the kinase activity was initiated by the addition of the substrates. 1 nM GSK3a (GST-full length GSK3a [SignalChem G08-10G]) or 1 nM GSK3b (GST-full length GSK3b: [SignalChem G08-9G]) were then incubated at ambient temperature for 100 minutes in 10 μl of 50 mM Tris, pH 7.5, 20 mM MgCl2, 0.05 mM DTT, 100 μg/ml BSA and 1% DMSO, with 200 nM biotinylated peptide substrate (biotinylated and S645 phosphorylated glycogen synthase 631-650) and ATP (e.g., at 2 μM, 4 μM, 10 μM, 100 μM, or 1 mM). The kinase activity was quenched with 2 μl of 250 mM EDTA. A 10 μl volume of 40 nM Strepavidin-d2, 2 nM […] antibody in TR-FRET Detection Buffer (Invitrogen) was then added. After 60 min at room temperature the plate was read on Envision plate reader using Ex: 340 nm, Em: 615 nm and […]. The normalized 665/615 Signal ratio versus log compound concentration was analyzed by XLFIT to yield IC50 values.
In general terms: Time-resolved FRET reads energy transfer from a long-lived donor to a nearby acceptor.

In test [2] the target is T2, GSK3b (GST-full length GSK3b) (Homo sapiens, UniProt P49841).
T2 construct: GST-full length GSK3b: [SignalChem G08-9G]; purchased SignalChem G08-9G
T2 sequence (P49841 whole entry): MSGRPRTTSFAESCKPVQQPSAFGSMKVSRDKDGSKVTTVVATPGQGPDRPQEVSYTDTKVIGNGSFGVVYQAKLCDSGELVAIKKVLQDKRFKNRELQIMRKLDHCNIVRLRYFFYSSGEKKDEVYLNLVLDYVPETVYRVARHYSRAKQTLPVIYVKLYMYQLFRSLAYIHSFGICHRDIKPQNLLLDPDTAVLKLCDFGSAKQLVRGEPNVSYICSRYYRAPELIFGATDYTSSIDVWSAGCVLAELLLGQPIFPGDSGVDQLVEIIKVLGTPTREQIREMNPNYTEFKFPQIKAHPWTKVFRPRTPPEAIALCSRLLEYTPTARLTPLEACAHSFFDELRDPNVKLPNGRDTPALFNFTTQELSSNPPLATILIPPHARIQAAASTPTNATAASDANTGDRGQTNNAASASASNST
The test can be described thus: GSK3b TR-FRET kinase inhibition assay. The test is classed as biochemical. Conditions: 1 mM ATP; Table 5; read-out: GSK3β TR-FRET 1 mM ATP Average IC50. The protocol:
as §1

T1 sequence (P49840 whole entry): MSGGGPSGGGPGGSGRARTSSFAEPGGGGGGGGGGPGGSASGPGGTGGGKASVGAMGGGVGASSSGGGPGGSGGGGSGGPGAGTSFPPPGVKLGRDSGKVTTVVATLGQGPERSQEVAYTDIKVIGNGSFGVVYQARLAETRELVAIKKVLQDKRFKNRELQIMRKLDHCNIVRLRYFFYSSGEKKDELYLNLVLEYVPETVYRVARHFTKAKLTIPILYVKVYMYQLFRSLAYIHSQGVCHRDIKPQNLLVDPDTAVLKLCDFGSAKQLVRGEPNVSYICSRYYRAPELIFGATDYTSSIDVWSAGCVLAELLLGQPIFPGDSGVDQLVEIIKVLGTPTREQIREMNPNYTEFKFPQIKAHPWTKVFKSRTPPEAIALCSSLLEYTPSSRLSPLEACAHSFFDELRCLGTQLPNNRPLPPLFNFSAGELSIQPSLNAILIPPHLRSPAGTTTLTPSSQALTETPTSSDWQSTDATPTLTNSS

In the case of `CC1(C)CC(=O)C2=C(C1)Nc1ncc(CF)c(C#N)c1C2(C)c1ccccc1` (single isomer, unassigned) [614A], the concentration for half-maximal inhibition (IC50) in test [1] and in test [2] was 5 to 20 µM throughout.

`CN1C(=O)C2=C(CC1(C)C)Nc1ncc(F)c(C#N)c1C2(C)c1ccccc1` (single isomer, unassigned) [615A]: the IC50 in test [1] and in test [2] was 1 to 5 µM in each case.

For `CN1C(=O)C2=C(CC1(C)C)Nc1ncc(F)c(C#N)c1C2(C)c1ccccc1` (single isomer, unassigned) [615B], the IC50 in test [1] and in test [2] was ≤ 0.1 µM in each case.

For the compound `CC1(C)CC(=O)C2=C(C1)Nc1ncc(F)c(C#N)c1C2(C)c1cccc(F)c1` (single isomer, unassigned) [618A], the IC50 in test [1] and in test [2] was 5 to 20 µM in each case.

`CC1(C)CC(=O)C2=C(C1)Nc1ncc(F)c(C#N)c1C2(C)c1cccc(F)c1` (single isomer, unassigned) [618B]: the half-maximal inhibitory concentration (IC50) in test [1] and in test [2] was 0.1 to 1 µM each time.

In the case of `CC1(C)CC(=O)C2=C(C1)Nc1ncc(C3CC3)c(C#N)c1C2(C)c1ccccc1` (single isomer, unassigned) [619A], the IC50 in test [1] and in test [2] was 5 to 20 µM throughout.

For `CC1(C)CC(=O)C2=C(C1)Nc1ncc(C3CC3)c(C#N)c1C2(C)c1ccccc1` (single isomer, unassigned) [619B], the half-inhibitory concentration (IC50) in test [1] and in test [2] was 5 to 20 µM each time.

On to `C=C(C)c1cnc2c(c1C#N)C(C)(c1ccccc1)C1=C(CC(C)(C)CC1=O)N2` (single isomer, unassigned) [620A], for which the concentration for half-maximal inhibition (IC50) in test [1] and in test [2] was 5 to 20 µM each time.

On to `C=C(C)c1cnc2c(c1C#N)C(C)(c1ccccc1)C1=C(CC(C)(C)CC1=O)N2` (single isomer, unassigned) [620B], for which the 50% inhibitory concentration (IC50) in test [1] and in test [2] was 5 to 20 µM each time.

For the compound `CC(=O)c1cnc2c(c1C#N)C(C)(c1ccccc1)C1=C(CC(C)(C)CC1=O)N2` (single isomer, unassigned) [621A], the concentration for half-maximal inhibition (IC50) in test [1] and in test [2] was 5 to 20 µM in each case.

For the compound `CC(C)c1cnc2c(c1C#N)C(C)(c1ccccc1)C1=C(CC(C)(C)CC1=O)N2` (single isomer, unassigned) [622B], the IC50 in test [1] and in test [2] was 5 to 20 µM throughout.

`CC1(C)CC(=O)C2=C(C1)Nc1ncc(F)cc1C2(C)c1cccc(C(F)F)c1` (single isomer, unassigned) [623B]: the 50% inhibitory concentration (IC50) in test [1] and in test [2] was 0.1 to 1 µM throughout.

For `CN(C)c1cnc2c(c1C#N)C(C)(c1ccccc1)C1=C(CC(C)(C)CC1=O)N2` (single isomer, unassigned) [624A], the IC50 in test [1] and in test [2] was 5 to 20 µM in each case.

For `CN(C)c1cnc2c(c1C#N)C(C)(c1ccccc1)C1=C(CC(C)(C)CC1=O)N2` (single isomer, unassigned) [624B], the IC50 – broadly, the concentration that gives 50% inhibition – was > 20 µM in test [1] and 5 to 20 µM in test [2].

For the compound `CC1(C)CC2=C(C(=O)N1)C(C)(c1ccccc1)c1cc(C(F)(F)F)cnc1N2` (single isomer, unassigned) [625A], the IC50 in test [1] and in test [2] was 1 to 5 µM each time.

As for `COc1cnc2c(c1C1CC1)C(C)(c1ccccc1)C1=C(CC(C)(C)CC1=O)N2` (single isomer, unassigned) [626A], the concentration for half-maximal inhibition (IC50) in test [1] and in test [2] was 5 to 20 µM each time.

In the case of `COc1cnc2c(c1C1CC1)C(C)(c1ccccc1)C1=C(CC(C)(C)CC1=O)N2` (single isomer, unassigned) [626B], the IC50 lay within 5 to 20 µM in test [1] and 1 to 5 µM in test [2].

`CC1(C)CC(=O)C2=C(C1)Nc1ncc(C(F)F)c(C#N)c1C2(C)c1ccccc1` (single isomer, unassigned) [627A]: the IC50 in test [1] and in test [2] was 0.1 to 1 µM throughout.

`CC1(C)CC(=O)C2=C(C1)Nc1ncc(C(F)F)c(C#N)c1C2(C)c1ccccc1` (single isomer, unassigned) [627B]: the figures for the IC50 in test [1] and in test [2] were 5 to 20 µM and 1 to 5 µM, respectively.

As for `CC1(C)CC2=C(C(=O)N1)C(C)(c1ccccc1)c1c(ncc(C(F)F)c1C#N)N2` (single isomer, unassigned) [628A], the half-maximal inhibitory concentration (IC50) in test [1] and in test [2] was 1 to 5 µM each time.

With `CC1(C)CC2=C(C(=O)N1)C(C)(c1ccccc1)c1c(ncc(C(F)F)c1C#N)N2` (single isomer, unassigned) [628B], the concentration for half-maximal inhibition (IC50) in test [1] was in the range of 1 to 5 µM; in test [2], 0.1 to 1 µM.

As for `CC(C)Oc1cccc(C2(C)C3=C(CC(C)(C)CC3=O)Nc3ncc(F)cc32)c1` (single isomer, unassigned) [629B], the concentration for half-maximal inhibition (IC50) in test [1] and in test [2] was 0.1 to 1 µM throughout.

Regarding `CC1(C)CC2=C(C(=O)N1)C(C)(c1cccc(S(C)(=O)=O)c1)c1cccnc1N2` (single isomer, unassigned) [630A], the results for the 50% inhibitory concentration (IC50) in test [1] and in test [2] were ≤ 0.1 µM and 0.1 to 1 µM, respectively.

Take `CC1(C)CC(=O)C2=C(C1)Nc1ncc(C(C)(F)F)c(C#N)c1C2(C)c1ccccc1` (single isomer, unassigned) [631A]: the IC50 in test [1] and in test [2] was 5 to 20 µM each time.

As to `CC1(C)CC(=O)C2=C(C1)Nc1ncc(C(C)(F)F)c(C#N)c1C2(C)c1ccccc1` (single isomer, unassigned) [631B], the IC50 in test [1] and in test [2] was 5 to 20 µM throughout.

For the compound `CN1C(=O)C2=C(CC1(C)C)Nc1ncc(C(F)F)c(C#N)c1C2(C)c1ccccc1` (single isomer, unassigned) [632A], the IC50 in test [1] lay in the range of 1 to 5 µM; in test [2] it was 0.1 to 1 µM.

For `CN1C(=O)C2=C(CC1(C)C)Nc1ncc(C(F)F)c(C#N)c1C2(C)c1ccccc1` (single isomer, unassigned) [632B], the concentration for half-maximal inhibition (IC50) in test [1] and in test [2] was 0.1 to 1 µM each time.

Take `CC1(C)CC(=O)C2=C(C1)Nc1ncc(F)c(C#N)c1C2(C)c1cccc(C(F)F)c1` (single isomer, unassigned) [634A]: the half-maximal inhibitory concentration (IC50) in test [1] and in test [2] was 5 to 20 µM in each case.

For the compound `CC1(C)CC(=O)C2=C(C1)Nc1ncc(F)c(C#N)c1C2(C)c1cccc(C(F)F)c1` (single isomer, unassigned) [634B], the IC50 in test [1] and in test [2] was ≤ 0.1 µM each time.

As for `CC1(C)CC(=O)C2=C(C1)Nc1ncc(C3CCCC3)c(C#N)c1C2(C)c1ccccc1` (single isomer, unassigned) [635A], the half-maximal inhibitory concentration (IC50) in test [1] and in test [2] was 5 to 20 µM in each case.

Turning to `C=Cc1c(C(F)(F)F)cnc2c1C(C)(c1ccccc1)C1=C(CC(C)(C)CC1=O)N2` (single isomer, unassigned) [636A], the concentration for half-maximal inhibition (IC50) in test [1] fell in the range of 1 to 5 µM; in test [2], 0.1 to 1 µM.

As to `C=Cc1c(C(F)(F)F)cnc2c1C(C)(c1ccccc1)C1=C(CC(C)(C)CC1=O)N2` (single isomer, unassigned) [636B], the concentration for half-maximal inhibition (IC50) lay in the range of 5 to 20 µM in test [1] and 1 to 5 µM in test [2].

Consider `CC1(C)CC2=C(C(=O)N1)C(C)(c1cccc(S(C)(=O)=O)c1)c1cc(F)cnc1N2` (single isomer, unassigned) [638A], for which the IC50 in test [1] is ≤ 0.1 µM; in test [2], 0.1 to 1 µM.

As to `CC1(C)CC2=C(C(=O)N1)C(C)(c1cccc(S(C)(=O)=O)c1)c1cc(F)cnc1N2` (single isomer, unassigned) [638B], the IC50 in test [1] and in test [2] was 5 to 20 µM in each case.

For `CC(C)Oc1cccc(C2(C)C3=C(CC(C)(C)CC3=O)Nc3ncc(F)c(C#N)c32)c1` (single isomer, unassigned) [639A], the half-maximal inhibitory concentration (IC50) in test [1] and in test [2] was 5 to 20 µM throughout.

As for `CC(C)Oc1cccc(C2(C)C3=C(CC(C)(C)CC3=O)Nc3ncc(F)c(C#N)c32)c1` (single isomer, unassigned) [639B], the IC50 in test [1] and in test [2] was ≤ 0.1 µM throughout.

In the case of `C=Cc1cnc2c(c1Br)C(C)(c1ccccc1)C1=C(CC(C)(C)CC1=O)N2` (single isomer, unassigned) [640B], the concentration for half-maximal inhibition (IC50) in test [1] and in test [2] was 5 to 20 µM each time.

Consider `CN(c1cccc(C2(C)C3=C(CC(C)(C)CC3=O)Nc3ncccc32)c1)c1ncccn1` (single isomer, unassigned) [641B], for which the IC50 in test [1] and in test [2] was 1 to 5 µM throughout.

`CC1(C)CC(=O)C2=C(C1)Nc1ncc(C(F)(F)F)c(C3CC3)c1C2(C)c1ccccc1` (single isomer, unassigned) [642A]: the concentration for half-maximal inhibition (IC50) in test [1] is 5 to 20 µM; in test [2] it was 1 to 5 µM.

In the case of `CC1(C)CC(=O)C2=C(C1)Nc1ncc(C(F)(F)F)c(C3CC3)c1C2(C)c1ccccc1` (single isomer, unassigned) [642B], the IC50 in test [1] and in test [2] was 5 to 20 µM each time.

With `Cc1c(C2(C)C3=C(CC(C)(C)CC3=O)Nc3ncc(F)cc32)cccc1S(C)(=O)=O` (single isomer, unassigned) [643A], the half-inhibitory concentration (IC50) in test [1] and in test [2] was 0.1 to 1 µM each time.

For the compound `Cc1ccc(C2(C)C3=C(CC(C)(C)CC3=O)Nc3ncc(F)cc32)cc1S(C)(=O)=O` (single isomer, unassigned) [644A], the concentration for half-maximal inhibition (IC50) in test [1] and in test [2] was 0.1 to 1 µM throughout.
